The values below come from PMC5688144, “Assay interference and off-target liabilities of reported histone acetyltransferase inhibitors” (Nature Communications, 2017).

A short description of data set [1]: UPLC-MS gross compound stability in assay buffer. The conditions noted are these: 25 mM sodium phosphate, pH 7.0, 30 °C, no GSH or CoA. The procedure:
Select compounds were incubated up to 24 h for additional stability analyses. Chromatograms and mass spectra were qualitatively analyzed for the formation of new peaks and/or loss of parent peaks.

The next data set is described as follows: Absorbance spectra. The conditions noted are these: 25 mM sodium phosphate, pH 7.0. It counts as physicochemical. As for the experimental part: Selected test compounds were assessed for absorption between 300 and 750 nm. Most compound absorption spectra were obtained at 100, 50, and 10 μM final compound concentrations in ALARM NMR buffer (25 mM sodium phosphate, pH 7.0). Final concentration of DMSO was constant at 2.0% (v/v). Compounds were allowed to incubate at RT in buffer for 10 min in UV-transparent polystyrene 384-well plates. Absorbance spectra were then obtained on a SpectraMax M3 or BMG Labtech CLARIOstar microplate reader at 25 °C. Significant absorbance was defined as molar absorptivity constants greater than 2000 M^−1 cm^−1 at wavelengths greater than 300 nm.

The target in a further data set is T1, PCAF (Homo sapiens, UniProt Q92831).
T1 construct: Reaction Biology Corporation (assays run by this contract lab)
The conditions noted are these: original report; 27 (Supplementary References); cited from earlier work.

Data set [2] has as its target MOZ. As to conditions: original report; ref 26 (Supplementary References); cited from earlier work.
In data set [3] the target is MOZ. On the set-up: method as in ref 26 (Supplementary References). The conditions noted are these: original report; ref 26 (Supplementary References); cited from earlier work.
The next data set concerns the target T2, human La antigen (Homo sapiens, UniProt P05455, T302N).
T2 construct: amino acids 100–324 of the human La antigen (plus T302N mutation); 6xHis (N); 6xHis (C); host or cells: Escherichia coli Rosetta cells
T2 sequence (P05455 100-324 T302N): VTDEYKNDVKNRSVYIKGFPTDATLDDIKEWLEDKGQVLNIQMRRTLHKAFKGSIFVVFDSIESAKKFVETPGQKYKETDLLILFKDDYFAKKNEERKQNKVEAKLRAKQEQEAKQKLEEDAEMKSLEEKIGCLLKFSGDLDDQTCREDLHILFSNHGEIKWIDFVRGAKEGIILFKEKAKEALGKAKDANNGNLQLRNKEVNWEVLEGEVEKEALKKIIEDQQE
Nature of the data set: ALARM NMR. Type of data set: binding. The conditions noted are these: 400 μM compound; for ALARM NMR, (-) DTT: 0 mM DTT; for ALARM NMR, (+) DTT: DTT present; for ALARM NMR interpretation: with and without DTT. The source says:
The gene encoding amino acids 100–324 of the human La antigen (plus T302N mutation) was cloned into pET28b + vector (Novagen) with both an N- and C-terminal 6xHis tag (addgene.org, plasmid ID 90209). The sequence identity of the ALARM NMR plasmid construct was verified by Sanger sequencing of the transgene region and next-generation sequencing of the whole plasmid.
Plasmid was transformed into Escherichia coli Rosetta cells (Novagen) and cultured in M9 minimal media. The La antigen was labeled by adding ^13C-labeled amino acid precursors ([3-^13C]-α-ketobutyrate and [3,3′-^13C]-α-ketoisovalerate sodium salts; Cambridge Isotope Laboratories; 250 mg L^−1 final concentrations) to culture medium 30 min before induction with IPTG (1 mM final concentration). Bacteria were collected after incubation at 25 °C for 8 h and washed with ice-cold phosphate-buffered saline (PBS). Washed cells were lysed by French press in ice-cold lysis buffer (50 mM Tris, pH 7.6, 300 mM NaCl, 10% glycerol (v/v), 5 mM β-mercaptoethanol (BME), 5 mM imidazole, 2 mM MgCl2, benzonase, and protease inhibitor cocktail), followed by an additional brief sonication step (3 × 15 s pulse sequence) on ice. This lysed solution was centrifuged (30,000×g for 30 min, two cycles) to remove cellular debris, then loaded onto a pre-washed Ni-NTA bead column (Qiagen) kept at 4 °C and washed with buffer (50 mM Tris, pH 7.6, 300 mM NaCl, 10% glycerol (v/v), 5 mM BME, 5 mM imidazole). The La antigen was eluted with an elution buffer (50 mM Tris, pH 7.6, 300 mM NaCl, 10% glycerol (v/v), 5 mM BME, imidazole gradient ranging from 5 mM to 0.5 M). […] Aliquots were flash-frozen in liquid N2 and stored at −80 °C until further use. Before use, aliquots of ~150 μM protein were incubated in the presence of 20 mM DTT at 37 °C for 1 h, then dialyzed (25 mM sodium phosphate buffer, pH 7.0 (no DTT)) in 16 h cycles at 4 °C with constant nitrogen bubbling and with gentle stirring, for three total buffer cycles.
For standard testing conditions, the [^1H-^13C]-HMQC spectra were acquired in 25 mM sodium phosphate buffer, pH 7.0, 10% D2O (v/v; CIL) ± 400 μM test compounds delivered from the aforementioned stock solutions, and ± 20 mM non-deuterated DTT. Final concentration of DMSO was 4.0% (v/v). Reaction solutions were mixed, then centrifuged for 5 min (1000×g) in non-binding 384-well microplates at RT, then incubated at 37 °C for 1 h and then 30 °C for 15 h before obtaining spectra. Samples were checked for evidence of gross precipitation. Data were recorded at 298 K on a Bruker UltraShield 700 MHz NMR spectrometer equipped with a Bruker 1.7 mm TCI Cryoprobe and Bruker SampleJet autosampler. Samples were tested at 50 μM protein concentrations using 16 scans, 2048 complex points in F2, and 80 points in F1 using standard protein [^1H-^13C]-HMQC and water suppression pulse sequences.
Data were analyzed in TopSpin™ 3.5 (Bruker). Reactions were normalized to equivalent DMSO controls. Non-reactive compounds were identified by the absence of chemical shifts or changes in peak intensities (^13C-methyl) ± 20 mM DTT.

The test system of a further data set is MOF. On the set-up: method as in ref 19, 26 (Supplementary References). As to conditions: original report; 26 (Supplementary References); cited from earlier work.
The target of another data set is T3, AmpC β-lactamase (Escherichia coli, UniProt P00811).
T3 construct: Recombinant E. coli AmpC (amino acids 20–377); purchased MyBioSource.com
The data set is described as follows: biochemical. On the set-up: species or system E. coli. The conditions noted are these: 10 μM compound; ± 0.01% Triton X-100. As for the experimental part: Selected compounds were assessed for aggregation using a modified AmpC β-lactamase counter-screen[24],[32],[64]. Recombinant E. coli AmpC (amino acids 20–377) was obtained from MyBioSource.com. Testing was performed in ALARM NMR buffer (25 mM sodium phosphate, pH 7.0) in flat-bottom UV-transparent 96-well microplates in 150 μL reaction volumes. Compounds were tested in triplicate at 10 μM final concentrations in either the presence or absence of freshly-prepared 0.01% Triton X-100 (v/v). Final concentration of DMSO was 2.0% (v/v). Compounds were incubated with ~5 nM AmpC in 147 μL reaction buffer for 5 min at RT, followed by the addition of 3 μL of nitrocefin substrate (100 μM final concentration). Reaction solutions were gently mixed by pipetting up and down three times using a multichannel pipette. […] Percent activity was normalized to DMSO-only controls. Fluconazole and lidocaine were included as negative aggregation control compounds. Rottlerin was included as a positive aggregation control compound. Aggregators were defined as compounds with significant detergent-dependent changes in AmpC activity (t-test, adjusted P-value <0.05; mean differences greater than 30%). Activators were defined as compounds that increased AmpC enzymatic activity.

The next data set has as its system p300/CBP. As to conditions: original report; 27 (Supplementary References); cited from earlier work.
Details of data set [4]: method as in not given. As to conditions: noted in discussion; ref not given; cited from earlier work.

Regarding `N#Cc1c2ccc(N)cc2nc2cc(N)ccc12` [Compound 22, CTx-1], the “UPLC-MS buffer stability counter-screen” value in data set [1] was “Grossly stable”. The “Absorption max (nm)” value in “Absorbance spectra” is recorded as “Nominal”. The Absorbance counter-screen result in the data set “Absorbance spectra” (300-750 nm) is listed as “Negative”. Moreover, the IC50 at PCAF was more than 100 µM. Also, the Ki at MOZ [2] was 2400 nM. Further, at MOZ [3], the Kd is 380 nM. Also, at human La antigen, the “ALARM NMR, (-) DTT” value was “Negative”; the “ALARM NMR, (+) DTT” value is recorded as “Negative”; the “ALARM NMR interpretation” value is on record as “Inert as tested”. Besides, the IC50 in the data set on MOF was more than 100 µM. Also, the AmpC aggregation counter-screen entry at AmpC β-lactamase is “Detergent-insensitive”.
Turning to `CC(=O)N[C@H](CCCCNC(=O)CSCCNC(=O)CCNC(=O)C(O)C(C)(C)COP(=O)(O)OP(=O)(O)OC[C@H]1O[C@@H](n2cnc3c(N)ncnc32)[C@H](O)[C@@H]1OP(=O)(O)O)C(N)=O` (stereo partly shown) [Compound 23, Lys-CoA], the IC50 with p300/CBP is 0.5 µM. Moreover, on PCAF, the IC50 is 200 µM. Further, in data set [4], the cell permeability result is “cell-impermeable”. Moreover, at human La antigen, the “ALARM NMR, (-) DTT” value was “Negative”; the “ALARM NMR, (+) DTT” value is “Negative”; the “ALARM NMR interpretation” value is recorded as “Inert as tested”. The “ALARM NMR readout” value on human La antigen (overall readout) was “negative”. The AmpC aggregation counter-screen result at AmpC β-lactamase was “Detergent-insensitive”.

For orientation: IC50 means the concentration that inhibits the measured activity by half. In general, Ki refers to a dissociation constant, usually derived from enzyme kinetics or from competition with a known ligand. In general, Kd refers to the constant that tells how readily two partners part at equilibrium.
